Source: patent US20110098257A1, “DERIVATIVES OF 4- OR 5-AMINOSALICYLIC ACID” (ANTIBE THERAPEUTICS INC., priority 2005, published 2011)
Structures can show the parent of a compound that is named as a salt. Blank lines part the entries; values can stand above or below the molecule they belong to.

Assays:
[1] = tested on: leukocyte adherence in mesenteric post-capillary venules; experiment: Leukocyte adherence to the vascular endothelium in vivo (intravital microscopy, aspirin-induced); design: species or system Rats
Procedure: Leukocyte adherence was studied using intravital microscopy, as described in detail previously (Wallace et al., (1993) Am. J. Physiol. 265: 993-998, incorporated hereto by reference). Rats were anesthetized with pentobarbital sodium (60 mg/kg i.p.) and cautery incisions were made along the abdominal region. A tracheotomy was performed to facilitate breathing. The rats were placed in a supine position, and a segment of the mesentery was exteriorized through the abdominal incision. The mesentery was carefully placed over an optically clear viewing pedestal that allowed for trans-illumination of a 2-cm^2 segment of tissue. All exposed tissue was covered with saline-soaked gauze to minimize dehydration. The temperature of the pedestal was kept at 37° C. and the mesentery was superfused with warmed bicarbonate-buffered saline (pH 7.4). An intravital microscope (Nikon L25/0.35) and a ×10 eyepiece were used to observe the mesenteric microcirculation. Post-capillary venules with diameters ranging from 20 to 40 μm were selected for the study. A video camera mounted on the microscope (Panasonic™ digital 5000) projected the image onto a monitor, and the images were recorded for playback analysis using a videocassette recorder. Images of the mesenteric microcirculation were recorded 5 minutes prior to aspirin administration (baseline), at the time of aspirin administration (time 0-5) and every 15 minutes for 60 minutes. Leukocyte adherence was blindly quantified from videotaped images of the vessels made over 5-min periods as the number of leukocytes that remained stationary along the vessel wall for 30 s or more (expressed per 100 μm venule length). Groups of rats (at least 5 in each) were pretreated with Compound XXXV (130 mg/kg), Compound XXVII (100 mg/kg), mesalamine (50 mg/kg), or vehicle 60 min prior to aspirin (or vehicle) administration. These drugs were given intragastrically. In some experiments, rats were treated with glibenclamide (10 mg/kg i.p.) or vehicle 30 min prior to administration of these compounds.

[2] = tested on: PE (1 μM) precontracted rings of thoracic aorta; experiment: Vasorelaxant effect on PE precontracted thoracic aorta rings; design: species or system CD-1 mice; settings: cumulative concentration-response 10 nM-3 mM, endothelium present, vs vehicle; FIG. 22
Procedure: CD-1 mice were sacrificed and thoracic aorta was rapidly dissected and cleaned from fat and connective tissue. […] Changes in isometric tension were recorded with PowerLab™ data acquisition system (Ugo Basile, Italy). […] Rings were initially stretched until a resting tension of 1.5 g was reached and allowed to equilibrate for at least 40 minutes during which tension was adjusted, when necessary, to 1.5 g and bathing solution was periodically changed.
Vehicle represents buffer but no compound. Curves to tested compounds were constructed in presence of endothelium.
Data obtained are shown in FIG. 22 and are expressed as mean±SEM. The level of statistical significance was determined by 2-way analysis of variance (ANOVA) followed by Bonferroni's test for multiple comparison, using the GraphPad™ software.

[3] = tested on: visceral pain in response to colorectal distension; experiment: Rat model of visceral pain perception (colorectal distension, AWR score); type: in vivo, Rats (male, Wistar); settings: for pain perception: equimolar doses: mesalamine 50, Compound XXXV 130, ADT-OH 80, Compound XXVII 100, 4-HTB 50 mg/kg; for pain perception / pain perception score: vs vehicle-treated group; for pain perception score after glibenclamide pretreatment / pain perception score: 0.8 mL colorectal distention, 100 mg/kg, FIG. 17; for pain perception score after glibenclamide pretreatment: glibenclamide 10 mg/kg i.p. 30 min before
Procedure: A rat model of visceral pain perception, a pre-clinical model of irritable bowel syndrome, was used in the following example. Rats (male, Wistar, 200-250 g, obtained from Charles River, Monza, Italy), were housed in plastic cages and maintained under controlled conditions with 12-hours light/dark cycle with lights on at 7.00 AM. Tap water and standard laboratory chow were freely available. Before experiments, rats were individually trained by spending 2-3 hours per day in a plexiglass cage for 2-3 days. It allowed them to adjust to a movement-restriction environment. Food was withheld for 12 hours before colorectal distension (CRD) recording were performed. Experiments were performed in awake rats and were conducted in a blind manner in that the observer was not aware of the identity of drug administered to each animal.
In the testing day, rats were sedated with ether inhalation and a 2 cm long latex balloon was inserted intrarectally 2 cm from the anal verge and fixed at the base of the tail. The balloon was connected via a double-barreled cannula to a pressure transducer to continuously monitoring the rectal pressure by a computer (PowerLab PC, A.D. Instruments, Milford, Mass., USA) and to a syringe for inflation/deflation of the balloon. The rats were then housed in a small cage (20×8×8 cm) on an elevated Plexiglas™ platform and allowed to wake up and adapt for 1 hour. After recovery from sedation, animals underwent the CRD procedure and behavioral responses were tested. The night before the experiments, the balloons were inflated and left overnight so the latex stretched and the balloons became compliant.
CRD of 20 seconds, performed every 5 minutes, was applied in increment of 0.4 ml starting from 0.4 ml up to 1.6 ml water. To achieve an accurate measurement of the colonic parameters and perception, the distensions were repeated twice for each intensity and data for each animal were averaged for analysis. Each animal underwent a double set of CRD. Twenty minutes after the first sequence of CRD (0.4 mL-1.6 ml water), drugs were administered intraperitoneally (i.p.) and a second set of CRD was performed. Behavioral responses during the first and the second set of CRD were assessed and compared.
Behavioral response to CRD was assessed by measuring the abdominal withdrawal reflex (AWR) using a semiquantitative score (1).
The effects of mesalamine and Compound XXXV on colonic compliance and sensitivity were determined using a total of 8 fasting rats. To investigate whether the administration of mesalamine and Compound XXXV could revert pain induced by CRD, after the first sequence of CRD, […], after which a second set of CRD was repeated.
To determine the effect of mesalamine or Compound XXXV on colonic smooth muscle, the compliance of the colo-rectum during CRD was obtained from intracolo-rectal volume and pressure and expressed as mL/mmHg.
All data are presented as the mean±SEM, with sample sizes of 4 rats/group; statistical comparison of paired data was performed by the Wilcoxon signed rank test. An associated probability (p value) of less that 5% was considered significant.
A rat model of visceral pain perception as described above was used to compare pain perception scores for both Compound XXXV and Compound XXVII with or without glibenclamide, an inhibitor of ATP-sensitive K^+ (KATP) channels.

[4] = after patients have taken the usual doses; Dig. Dis. Sci. 1989; 34: 573-578; cited from earlier work
[5] = tested on: mice having TNBS-induced colitis; experiment: TNBS-induced colitis in mice (disease activity score, colonic MPO activity); type: in vivo, Balb/c mice
Procedure: A standard experimental animal model of colitis induced by intracolonic administration of 2,4,6-trinitrobenzene sulfonic acid (TNBS) to mice is used in the following example. A detailed description of this model has been published (Santucci et al. (2003) Gastroenterology 124:1381-94) and is incorporated herein by reference. Briefly, 6-8 week old Balb/c mice were given TNBS intracolonically at a dose of 1.5 mg in 0.1 mL of 30% ethanol. The mice were randomized to the various treatment groups (n=6 per group). Beginning one hour later and continuing every 12 h for 5 days, the mice were treated orally with vehicle (1% carboxymethylcellulose (CMC)), 5-ASA (mesalamine) (25, 50 or 75 mg/kg) or with equimolar doses of 2-hydroxy-5-amino-benzoic acid 4-(thioxo-5H-[1,2]dithiol-3-yl)-phenyl ester hydrochloride (Compound XXXV) (130 mg/kg), or with […] (100 mg/kg), 50% (66 mg/kg) and 25% (33 mg/kg) of that dose. The mice were evaluated (blindly) on the final day of the study for the presence of diarrhea and fecal occult blood, and their body weights were measured. […] After sacrifice, a sample of the colon was excised for measurement of myeloperoxidase (MPO) activity, as a marker of granulocyte infiltration. All results were compared to those obtained with healthy mice as well.
FIGS. 3 and 4 show the Disease Activity Index and MPO activity, respectively, using the same experimental animal model of colitis as described above, in which Compound XXXV (130 mg/kg) was compared to equimolar doses of its two constituents, mesalamine (50 mg/kg) and 5-p-hydroxyphenyl-[…] (ADT-OH) (80 mg/kg), and a mixture of mesalamine (50 mg/kg) and ADT-OH (80 mg/kg). *p<0.05 versus the vehicle-treated group. Each group consisted of at least 5 rats.
FIGS. 6 and 7 show the Disease Activity Index and MPO, respectively, using the same experimental animal model of colitis as described above, in which Compound XXVII (100 mg/kg) was compared to equimolar doses of its two constituents, mesalamine (50 mg/kg) and 4-hydroxythiobenzamide (4-HTB) (50 mg/kg), mesalamine alone (50 mg/kg) and 4-HTB alone (50 mg/kg). *p<0.05 versus the vehicle-treated group. Each group consisted of at least 5 rats.
The same model was used as described above. In this example, the effects of mesalamine (50 mg/kg) were compared to those of equimolar doses of Compound XXXV. In addition to measuring the severity of colitis by measuring disease activity score and MPO activity, tissues were processed for measurement of a number of genes for inflammatory cytokines and other mediators.

SMILES: CC(=O)Oc1ccccc1C(=O)O [Aspirin, aspirin, reference compound]
- leukocyte adherence after intragastric aspirin ([1]; vs baseline period / vehicle+vehicle group, FIG. 19): markedly increased leukocyte adherence

SMILES: CC(=N)S [thioacetamide]
- vasorelaxant effect (% relaxation) [2]: significant vasorelaxant effects, which were concentration dependent

SMILES: Oc1ccc(-c2cc(=S)ss2)cc1 [ADT-OH, 5-p-hydroxyphenyl-1,2-dithione-3-thione, reference compound]
- pain perception [3]: Only Compound XXXV and Compound XXVII significantly reduced pain perception

SMILES: Nc1ccc(O)c(C(=O)O)c1 [mesalamine, 5-aminosalicylic acid]
- pain perception score after glibenclamide pretreatment [3]: did not affect the pain perception
- pain perception score [3]: had no significant effect
- pain perception [3]: Only Compound XXXV and Compound XXVII significantly reduced pain perception
- aspirin-induced leukocyte adherence with glibenclamide pretreatment ([1]; glibenclamide 10 mg/kg i.p. 30 min prior to the compound, compound plus aspirin, FIG. 19): no effect
- mesalamine concentration in the colonic lumen [4]: up to 5 mM

SMILES: COc1ccc(Cl)cc1C(=O)NCCc1ccc(S(=O)(=O)NC(=O)NC2CCCCC2)cc1 [Glibenclamide, glibenclamide, reference compound]
- leukocyte adherence, glibenclamide alone ([1]; glibenclamide 10 mg/kg i.p., no aspirin, FIG. 19): did not affect leukocyte adherence
- aspirin-induced increase in leukocyte adherence ([1]; pretreatment: Compound XXXV 130 mg/kg or mesalamine 50 mg/kg intragastrically 60 min prior to aspirin, glibenclamide 10 mg/kg i.p., FIG. 19): did not affect the magnitude of aspirin-induced leukocyte adherence

SMILES: NC(=S)c1ccc(OC(=O)c2cc(N)ccc2O)cc1 [Compound XXVII, 5-Amino-2-hydroxy-benzoic acid 4-thiocarbamoyl-phenyl ester]
- pain perception score after glibenclamide pretreatment [3]: reversed by pretreatment with glibenclamide
- pain perception score [3]: significantly reduced the pain perception
- pain perception [3]: significantly reduced pain perception
- Disease Activity Index ([5]; Compound XXVII 100 mg/kg vs mesalamine 50 mg/kg, 4-HTB 50 mg/kg and their mixture, FIG. 5): almost three times as effective as either mesalamine alone, 4-HTB alone or a mixture of mesalamine and 4-HTB
- MPO activity (granulocyte infiltration) ([5]; Compound XXVII 100 mg/kg, FIG. 6): significantly reduced inflammation
- melting point: 193 to 195 °C
- aspirin-induced leukocyte adherence, final time period ([1]; minutes 60-65, Compound XXXV 130 mg/kg, Compound XXVII 100 mg/kg, FIG. 20): suppress aspirin-induced leukocyte adherence
- aspirin-induced leukocyte adherence, final time period, with glibenclamide pretreatment ([1]; minutes 60-65, glibenclamide 10 mg/kg i.p., FIG. 20): glibenclamide pretreatment to reverse this inhibitor effect

- melting point: 93 to 95 °C
SMILES: Nc1ccc(O)c(C(=O)Oc2ccc(-c3cc(=S)ss3)cc2)c1 (as salt: hydrochloride) [Compound XXXV, 5-Amino-2-hydroxy-benzoic acid 4-(5-thioxo-5H-[1,2]dithiol-3-yl)-phenyl ester]

SMILES: NC(=S)c1ccc(O)cc1 [Compound 4-HTB, 4-hydroxythiobenzamide, reference compound]
- pain perception [3]: Only Compound XXXV and Compound XXVII significantly reduced pain perception
- vasorelaxant effect (% relaxation) [2]: significant vasorelaxant effects, which were concentration dependent
